In article PMC5705205 (Bioorganic & medicinal chemistry letters, 2017):

How the values were obtained:
[1] = test system: quinone reductase 1 (QR1); assay: QR1 induction assay; type: cell-based; details: for fold induction at 50 µM: read-out: QR1 IR (induction ratio), induction ratio at a concentration of 50 μM
aromatase = target: T1, aromatase (Homo sapiens, UniProt P11511); assay: Aromatase inhibition assay; type: biochemical
T1 sequence (P11511 1-503): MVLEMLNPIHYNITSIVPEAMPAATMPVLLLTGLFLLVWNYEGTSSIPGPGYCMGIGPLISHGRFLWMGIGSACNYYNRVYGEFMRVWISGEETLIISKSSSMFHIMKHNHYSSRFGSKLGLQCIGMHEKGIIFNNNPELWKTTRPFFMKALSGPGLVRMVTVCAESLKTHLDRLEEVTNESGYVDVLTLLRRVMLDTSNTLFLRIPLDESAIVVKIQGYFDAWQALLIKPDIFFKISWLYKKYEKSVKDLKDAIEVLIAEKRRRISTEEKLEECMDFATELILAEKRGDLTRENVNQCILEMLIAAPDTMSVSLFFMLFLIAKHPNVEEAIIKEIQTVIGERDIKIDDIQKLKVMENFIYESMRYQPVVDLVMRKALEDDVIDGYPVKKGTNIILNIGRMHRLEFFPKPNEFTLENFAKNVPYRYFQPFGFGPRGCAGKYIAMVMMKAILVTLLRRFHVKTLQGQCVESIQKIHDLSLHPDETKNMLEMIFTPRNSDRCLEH

| SMILES | Anti-aromatase activity (in words) (aromatase) | QR1 induction activity (in words) [1] | also measured |
| --- | --- | --- | --- |
| O=c1cc(-c2ccc(Br)cc2)oc2ccccc12 [4′-bromoflavone, reference compound] | – | – | EC (2-fold activity) ([1]; read-out: QR1 CD (concentration that double the activity)): 0.01 µM |
| c1ccc(-c2cc3ccccc3[nH]2)cc1 [Compound 1, 2-phenylindole] | only slight activity | very good QR1 induction activity | – |
| c1ccc(C2Cc3ccccc3N2)cc1 (stereo not shown) [Compound 1f, 2-phenylindoline] | did not show significant activity | weak activity | – |
| N#Cc1c(-c2ccccc2)[nH]c2ccccc12 [Compound 2d, 3-cyano-2-phenylindole] | – | – | IC50 (aromatase): 1.61 ± 0.2 µM; inhibition at 50 µM (aromatase; read-out: Aromatase % inhibition): 88 ± 1.07%; fold induction at 50 µM [1]: 0.55 ± 0.64 |
| COc1cc(OC)cc(-c2cc3ccccc3[nH]2)c1 [Compound 7] | – | – | Fold increase in QR1 induction activity over 1 ([1]; relative to 1): 2 fold |
| Clc1ccc(-c2cc3ccccc3[nH]2)cc1Cl [Compound 8] | – | inactive | – |
| Clc1ccccc1-c1cc2ccccc2[nH]1 [Compound 9] | – | – | fold induction at 50 µM [1]: < 1.5 |
| Fc1cc(F)cc(-c2cc3ccccc3[nH]2)c1 [Compound 15] | – | inactive | – |
| CCCCCc1ccc(-c2cc3ccccc3[nH]2)cc1 [Compound 17] | – | inactive | – |
| Nc1ccc(-c2cc3ccccc3[nH]2)cc1 [Compound 18] | – | inactive | – |
| CN(C)c1ccc(-c2cc3ccccc3[nH]2)cc1 [Compound 20] | – | inactive | – |
| c1cncc(-c2cc3ccccc3[nH]2)c1 [Compound 21] | – | inactive | – |
| c1ccc2[nH]c(-c3ccsc3)cc2c1 [Compound 22] | did not show encouraging activity | inactive | – |
| COc1ccc2ccc(-c3cc4ccccc4[nH]3)cc2c1 [Compound 23] | did not show encouraging activity | inactive | – |
| Cn1c(-c2ccccc2)cc2cc([N+](=O)[O-])ccc21 [Compound 24a] | – | – | Fold increase in aromatase activity over free NH derivative 24 (aromatase; relative to 24): 2 fold |
| Cc1ccccc1-c1cc2cc([N+](=O)[O-])ccc2[nH]1 [Compound 25] | – | – | fold induction at 50 µM [1]: < 1.5 |
| O=[N+]([O-])c1ccc2[nH]c(-c3ccc(Cl)c(Cl)c3)cc2c1 [Compound 31] | totally destroyed aromatase activity | – | – |
| Cn1c(-c2ccc(Cl)c(Cl)c2)cc2cc([N+](=O)[O-])ccc21 [Compound 31a] | not active | – | – |
| c1ccc(-c2nc3ccccc3[nH]2)cc1 [Compound 34, 2-phenylbenzimidazole, reference compound] | not active | – | – |
